These results are taken from patent publication US12102085B2, “Insecticidal active mixtures comprising carboxamide compound” (priority 2013, dated 2024).

Common to all, as to assay type: in vivo
In data set [1] the test system is yellow fever mosquito (Aedes aegypti). The data set can be described thus: Test B.3 Control of yellow fever mosquito, larvae in 96-well microtiter plates. Conditions: 2 days, larval mortality. The protocol: Test Principle: Curative Ultrasonic Spraying of Larvae in Liquid Diet
For evaluating control of yellow fever mosquito (Aedes aegypti) the test unit consisted of 96-well-microtiter plates containing 200 μl of tap water per well and 5-15 freshly hatched A. aegypti larvae.
The compounds or mixtures were formulated using a solution containing 75% (v/v) water and 25% (v/v) DMSO. Different concentrations of formulated compounds or mixtures were sprayed onto the insect diet at 2.5 μl, using a custom built micro atomizer, at two replications.
(§1) For the experimental mixtures in this test identical volumes of both mixing partners at the desired concentrations respectively, were mixed together.
After application, microtiter plates were incubated at 28±1° C., 80±5% RH for 2 days.
Larval mortality was then visually assessed.

In data set [2] the test system is Southern Green Stink Bug (Nezara viridula). The data set can be described thus: Test B.6 Control of Southern Green Stink Bug, dipped green beans and dipped insects. Conditions: for Average Control % [observed mortality]: Nezara viridula 4th instar, 5 ppm, after 5 days. On the procedure: The compounds and respective mixtures were formulated using a solution containing 50:50 water:acetone with 0.01 wt % Kinetic®. Whole Green Beans were rinsed in a 1% bleach solution, triple rinsed with DI water, and allowed to air dry at least 30 minutes in the fume hood. They were dipped in treatment solutions for approximately 5 seconds and allowed to air dry for another 30 minutes in the fume hood. For maximum exposure, Southern Green Stink Bugs (SGSB, 4th instar) were dipped in treatment solution for approximately 3 seconds and allowed to air dry in a cup lined with filter paper and closed with a vented lid for approximately 10 minutes in the fume hood. Three beans were placed in cups with a dry filter paper in the bottom and a portion cup with a cotton wick for water (=assay arena), and were infested with 4 SGSB per cup. Each treatment was replicated 3-fold (1 replicate=3 beans with 4 SGSB). The assays arenas were held at 27° C. and 45% room humidity. Data were recorded after 5 days as number of insects alive and dead. Nezara viridula mortality (%) was calculated as: [(pre-treatment count−post treatment count)/pre-treatment count]×100.

In data set [3] the test system is vetch aphid (Megoura viciae). The data set can be described thus: Test B.1 Control of vetch aphid, sprayed broad bean leaf disks in 24-well microtiter plates. The settings on record: 5 days, aphid mortality and fecundity. On the procedure: For evaluating control of vetch aphid (Megoura viciae) through contact or systemic means the test unit consisted of 24-well-microtiter plates containing broad bean leaf disks.
The compounds or mixtures were formulated using a solution containing 75% (v/v) water and 25% (v/v) DMSO. Different concentrations of formulated compounds or mixtures were sprayed onto the leaf disks at 2.5 μl, using a custom built micro atomizer, at two replications.
as §1
After application, the leaf disks were air-dried and 5-8 adult aphids placed on the leaf disks inside the microtiter plate wells. The aphids were then allowed to suck on the treated leaf disks and incubated at 23±1° C., 50±5% RH for 5 days.
Aphid mortality and fecundity was then visually assessed.

Data set [4] has as its system Mediterranean fruitfly (Ceratitis capitata). The data set can be described thus: Test B.5 Control of Mediterranean fruitfly, insect diet with eggs in 96-well microtiter plates. The settings on record: 5 days, egg and larval mortality. The protocol: For evaluating control of Mediterranean fruitfly (Ceratitis capitata) the test unit consisted of 96-well-microtiter plates containing an insect diet and 50-80 C. capitata eggs.
The compounds and respective mixtures were formulated using a solution containing 75% (v/v) water and 25% (v/v) DMSO. Different concentrations of formulated compounds and mixtures were sprayed onto the insect diet at 5 μl, using a custom built micro atomizer, at two replications. For the experimental mixtures in this test identical volumes of both mixing partners at the desired concentrations respectively, were mixed together.
(§2) After application, microtiter plates were incubated at 28±1° C., 80±5% RH for 5 days.
(§3) Egg and larval mortality was then visually assessed.

The subject of data set [5] is tobacco budworm (Heliothis virescens). The data set can be described thus: Test B.4 Control of tobacco budworm, insect diet with eggs in 96-well microtiter plates. Conditions: 5 days, egg and larval mortality. On the procedure:
For evaluating control of tobacco budworm (Heliothis virescens) the test unit consisted of 96-well-microtiter plates containing an insect diet and 15-25 H. virescens eggs.
The compounds or mixtures were formulated using a solution containing 75% (v/v) water and 25% (v/v) DMSO. Different concentrations of formulated compounds or mixtures were sprayed onto the insect diet at 10 μl, using a custom built micro atomizer, at two replications.
as §1, §2, §3

For data set [6], the system named is boll weevil (Anthonomus grandis). In words: Test B.2 Control of boll weevil, insect diet with eggs in 24-well microtiter plates. Conditions: 5 days, egg and larval mortality. On the procedure: For evaluating control of boll weevil (Anthonomus grandis) the test unit consisted of 24-well-microtiter plates containing an insect diet and 20-30 A. grandis eggs.
The compounds or mixtures were formulated using a solution containing 75% (v/v) water and 25% (v/v) DMSO. Different concentrations of formulated compounds or mixtures were sprayed onto the insect diet at 20 μl, using a custom built micro atomizer, at two replications.
as §1
After application, microtiter plates were incubated at 23±1° C., 50±5% RH for 5 days.
as §3

[7] abbreviates: Nezara viridula, 120 h, read-out: Average Control % [observed mortality].

Regarding `Cc1c(COC(=O)[C@@H]2[C@H](/C=C(\Cl)C(F)(F)F)C2(C)C)cccc1-c1ccccc1` (racemic) [Bifenthrin, bifenthrin], the “Average Control %” value in data set [1] (40 + 0 ppm) was determined as 0%.
As to `CC(C)(C)[C@]1(O)C[C@@H]2OC(=O)C[C@@]23C(=O)O[C@@H]2OC(=O)[C@H](O)[C@]213` [Bilobalid, (3aS,5aR,8aS,9R,10aR)-9-tert-butyl-8,9-dihydroxydihydro-9H-furo[2,3-b]furo[3′,2′;2,3]cyclopenta[1,2-c]furan-2,4,7(3H,8H)-trione], in data set [2], the “Average Control % [observed mortality]” value came out at 19%. For the same compound, the “Average Control %” value in data set [3] (25 ppm) is 0%.
With `C[C@@H]1C(=O)O[C@H]2C[C@@]34[C@H]5C[C@@H](C(C)(C)C)[C@]36[C@@H](OC(=O)[C@@H]6O)O[C@@]4(C(=O)O5)[C@]21O` [Ginkolide A, ginkgolide A], the “Average Control % [observed mortality]” value in data set [2] was determined as 13%.
Turning to `O=[N+]([O-])NC1=NCCN1Cc1ccc(Cl)nc1` [Imidacloprid, imidacloprid], the “Average Control %” value is reported as 25% in data set [4] (10 ppm), 0% in data set [5] (0.4 ppm) and 0% in data set [6] (10 ppm).
Consider `O=C(NC(=O)c1c(F)cccc1F)Nc1cc(Cl)c(F)c(Cl)c1F` [Teflubenzuron, teflubenzuron], for which the “Average Control %” value in data set [5] (50 ppm) and in data set [3] (2 ppm) was 0% each time.
Regarding `CN(C(=O)c1ccccc1)c1cccc(C(=O)Nc2c(Br)cc(C(F)(C(F)(F)F)C(F)(F)F)cc2C(F)(F)F)c1F` [carboxamide compound of formula I], the “Average Control %” value in data set [4] (0 ppm (so in the source)) came to 0%; in data set [5] (0.1 ppm) it was 0%; in data set [5] (0.5 ppm) it was 50%; in data set [1] (0 + 0.5 ppm) it was 0%; in data set [6] (0.5 ppm), 0%; in data set [3] (0.02 ppm) it was 0%. For the same compound, the “Average Control %” value in data set [3] (0.5 ppm) was 0%. Further, in data set [2] (setting [7]), the mortality (in general, the percentage killed) at 1 ppm is 13%. For the same compound, in data set [2] (setting [7]), the mortality at 10 ppm was 88%.
